Like-named read-outs stand apart in the source and are kept apart here.
Key:
Format in all cases: in vivo
[1] = test system: Circulating Hematologic Elements; assay: Human HIV clinical protocol: hematology
Protocol: Otherwise untreated patients with CD4 counts of ≧200/μL and HIV-1 viral RNA between 5,000 and 1,000,000 copies/mL (branched-DNA, version 3.0, Bayer, Tarrytown, N.Y.) provided informed consent and were enrolled into a Phase I/II dose-escalation study of the safety and efficacy of intramuscular injections of BrEA. The protocol was conducted in South Africa. In the first cohort, four patients received an initial injection of 1 mL (50 mg), followed by a safety and pharmocokinetic study for seven days, and then received five daily injections of 1 mL (50 mg). The second cohort of 8 patients was randomized in a 1:2 ratio to receive either 50 mg (1 mL) or 100 mg (2 mL) on the same schedule. Patients were allowed at the discretion of the investigators to receive up to three additional courses each, repeated after 28 days of observation. The protocol was amended to introduce an improved formulation, and to extend the initial pharmacokinetic and safety period to 14 days, the observation period following the five daily doses to 35 days, and to allow up to 7 treatment courses. A third cohort of 24 patients was randomized in a 1:2:4 ratio to receive either 50 mg (0.5 mL), 100 mg (1 mL), or 200 mg (2 mL) of BrEA. The patients were all male, since initial safety studies are not permitted in females in South Africa. Within the group of 39 patients randomized, the ethnic demographic included was 18 Caucasian, 17 African, and 4 other. The average age was 34 (range 20-63), the average initial CD4/μL was 434 (range 176-1210), and the average viral load was 13,772 copies/mL (range 3,020-158,489). Patients underwent physical examinations and provided samples for chemistry, hematology, virology and immunology testing approximately every two weeks.
The CD4^+ cell frequency was determined using the FACSCount test. The absolute frequency of a CD8^+ cell subset was calculated in a similar fashion. The absolute white blood cell (WBC) count was determined using an automated cell counter (Advia 120, Bayer, Tarrytown, N.Y.). The nucleated cell region was defined using a forward versus orthogonal scatter plot. The absolute frequency per μL of CD3^− Natural Killer or Dendritic Cell subsets (F) was estimated by the equation: F=(proportion of nucleated cells)×(absolute WBC count per μL).
Statistical analysis of changes in surface phenotypes, hematological, and viral parameters were performed by calculating the area under the curve (AUC) of the percentage difference from baselines (phenotype), percentage difference from the mean of screen and baseline values (hematology), or log10 change from the mean of screen and baseline values (plasma viral RNA) for individual patients. AUC were calculated using the actual number of days between analysis visits for each patient. Because patients were on study for varying periods of time, this value was normalized to the time-averaged AUC by dividing by the number of days of observation. The Student's t-test was then used to analyze the difference from zero for the AUCs from all patients with data available for each parameter. A significant increase in the AUC for the entire 5-month period was interpreted as a nonrandom change in the given parameter.
For these reasons, the time-averaged AUC values for the 5-month period underestimate the magnitude of the individual responses. Maximal individual patient responses were calculated as the mean of the maximal percentage changes from baselines for individual patients at any analysis visit after dosing.
To investigate the kinetics of the responses for the entire population related to the time after dosing, the maximum analysis visit responses were calculated as the average of the maxima of the mean percentage changes from baselines for each analysis visit. Due to the altered BrEA administration interval for cohort 3, the analysis visits were aligned relative to the last dosing visit.

blood cell counts = assay: Enhancement of hemopoiesis in a human HIV patient
Protocol: A human patient infected with the HIV virus was treated with 16α-bromoepiandrosterone (“BrEA”), using a physiological saline formulation containing 10 mg/mL of BrEA in solution, 36% w/v hydroxypropyl-β-cyclodextrin and 20 mg/mL of micronized BrEA in suspension. The patient received two courses of treatment. The first course consisted of subcutaneous injection once per day of 80 mg of BrEA for 10 days. The second course of treatment commenced 74 days later and used the same formulation, except that deuterium oxide replaced water in the formulation. The second treatment course consisted of subcutaneous injection once per day of 80 mg of BrEA for 15 days. The patient's blood parameters were obtained at the start and at the end of each course of treatment.

[2] = Pharmacokinetics of BrEA after subcutaneous dose in rats; conditions: for half-life: rat, plasma, sc, biphasic elimination
Protocol: BrEA was administered subcutaneously to rats using the formulation of example 1. Approximately 90% of the drug left the injection site within 24 hours of administration, and reached a maximum concentration in the plasma of about 0.2% of the injected dose at one hour post administration. Elimination from the plasma was biphasic, with half-lives of about 12 and 72 hours respectively. […] A study is also performed in Rhesus Monkeys with the example 1 formulation to determine plasma pharmacokinetics.

C[C@]12CC[C@H](O)C[C@@H]1CC[C@@H]1[C@@H]2CC[C@]2(C)C(=O)[C@H](Br)C[C@@H]12 [BrEA, 16α-bromo-3β-hydroxy-5α-androstane-17-one]
Eosinophils: Maximum Analysis Visit Responses Mean ([1]; analysis visit day 22): 129% (22) | WBC: Maximum Analysis Visit Responses Mean ([1]; analysis visit day 81): 23% (81) | Basophils: Maximum Analysis Visit Responses Mean ([1]; analysis visit day 126): 113% (126) | Eosinophils: Maximum Individual Patient Responses Mean (range) ([1]; change from baseline, n=33): 110% (−37 to 656%) | Basophils: Maximum Individual Patient Responses Mean (range) ([1]; change from baseline, n=37): 182% (−20 to 1,100%) | Monocytes: Maximum Individual Patient Responses Mean (range) ([1]; change from baseline, n=37): 60% (−14 to 189%) | Neutrophils: Maximum Individual Patient Responses Mean (range) ([1]; change from baseline, n=37): 67% (−25 to 297%) | Platelets: Maximum Individual Patient Responses Mean (range) ([1]; change from baseline, n=37): 31% (0 to 122%) | WBC: Maximum Individual Patient Responses Mean (range) ([1]; change from baseline, n=37): 36% (−1 to 159%) | WBC: Time-averaged AUC Increase Mean ± SEM ([1]; i.m. BrEA, HIV patients, n=37, p=0.132): 4.4 ± 3% | Eosinophils: Time-averaged AUC Increase Mean ± SEM ([1]; n=33, p=0.086): 20 ± 11% | Platelets: Time-averaged AUC Increase Mean ± SEM ([1]; n=37, p<0.001): 7 ± 2% | Basophils: Time-averaged AUC Increase Mean ± SEM ([1]; n=37, p=0.001): 42 ± 12% | Neutrophils: Time-averaged AUC Increase Mean ± SEM ([1]; n=37, p=0.009): 11 ± 4% | Monocytes: Time-averaged AUC Increase Mean ± SEM ([1]; n=37, p=0.029): 10 ± 5% | WBC (blood cell counts; 1st Course end (80 mg s.c. daily 10 days), start 2.38): 2.47e+09 L⁻¹ | basophils (blood cell counts; 1st Course end, start 0.02): 1e+07 L⁻¹ | monocytes (blood cell counts; 1st Course end, start 0.35): 3e+08 L⁻¹ | neutrophils (blood cell counts; 1st Course end, start 0.92): 8e+08 L⁻¹ | CD4+ T cells (blood cell counts; 1st Course end, start 93): 116 mm^−3 | CD16+/56+ NK cells (blood cell counts; 1st Course end, start 186): 348 mm^−3 | T suppressor cells (blood cell counts; 1st Course end, start 344): 452 mm^−3 | WBC (blood cell counts; 2nd Course end (80 mg s.c. daily 15 days), start 3.57): 5.66e+09 L⁻¹ | basophils (blood cell counts; 2nd Course end, start 0.01): 6e+07 L⁻¹ | monocytes (blood cell counts; 2nd Course end, start 0.34): 5.4e+08 L⁻¹ | neutrophils (blood cell counts; 2nd Course end, start 2.02): 3.6e+09 L⁻¹ | CD4+ T cells (blood cell counts; 2nd Course end, start 113): 125 mm^−3 | CD16+/56+ NK cells (blood cell counts; 2nd Course end, start 144): 425 mm^−3 | T suppressor cells (blood cell counts; 2nd Course end, start 351): 513 mm^−3 | half-life ([2]; rats s.c., read-out: plasma elimination half-life, first phase (converted)): ~12 h | half-life ([2]; rats s.c., read-out: plasma elimination half-life, second phase (converted)): ~72 h | accumulation in organs ([2]; rats s.c.): did not accumulate to a significant extent in any major organ | route of excretion ([2]; rats s.c.): excreted primarily in the feces | time of maximum concentration in the plasma ([2]; rats s.c.): one | maximum concentration in the plasma ([2]; rats s.c., at one hour post administration): about 0.2 % of the injected dose | drug left the injection site ([2]; rats, subcutaneous, formulation of example 1, within 24 hours): Approximately 90%

— patent US20070275936A1, “Formulations and Treatment Methods” (priority 1998, published 2007)
